Columns and labels:
OVA-challenged mice = assay: Histological analysis of lung airway inflammation in OVA-challenged mice; format: in vivo, mouse
Method: (§1) Female BALB/c mice and C57BL/6 mice (7 weeks old; 18-20 g) were obtained from Orientbion Inc. (Seoungnam, Korea). Sensitization and challenge were carried out as described previously with some modification (28). Briefly, female C57BL/6 mice (7 weeks old; 18-20 g) were immunized by intraperitoneal (i.p.) injection of 200 μg ovalbumin (OVA) emulsified in 2.5 mg of adjuvant aluminum hydroperoxide gel (alum) (Pierce, Rockford, Ill.). A second i.p. injection of 20 μg OVA adsorbed onto alum (2.5 mg) was administered 10 days later. After an additional 10 days, mice were exposed to an aerosol of 1% OVA in saline for 30 min daily on 3 consecutive days. On day 25, mice were finally challenged by provocation with 10% OVA aerosol. For inhibition experiments, sense or antisense BLT2 (1.6 mg/kg) was injected intravenously 24 h and then 1 h before the 10% OVA challenge. The mice were then killed on day 27 to assess asthmatic phenotypes. Antisense BLT2 oligonucleotide (5′-[…]-3′ (SEQ ID NO: 15)), sense BLT2 oligonucleotide (5′-[…]-3′ (SEQ ID NO: 16)).
(§2) Alternatively, BALB/c mice were sensitized on day 1 by i.p. injection of 20 μg OVA emulsified in 2.5 mg of alum (Pierce, Rockford, Ill.), followed by an identical booster injection administered on day 14. On days 21, 22 and 23 after initial sensitization, the mice were challenged for 30 min with an aerosol of 1% OVA using an ultrasonic nebulizer. LY255283 (2.5 mg/kg) or vehicle control (DMSO) was administered intravenously 1 h before 1% OVA challenge. Mice were killed on day 25, to assess asthmatic phenotypes. 2′,7′-dichorofluorescein diacetate (DCF-DA) was purchased from Molecular Probes (Eugene, Oreg.). BSA and DMSO were from Sigma-Aldrich (St. Louis, Mo.). Acetyl-methacholine chloride was purchased from Sigma-Aldrich (St. Louis, Mo.). All other chemicals were from standard sources and were of molecular biology grade or higher. All mice were maintained and bred under specific pathogen-free conditions in the Korea University mouse facility, and experiments were conducted within the parameters of an approved protocol by the Animal Research Committee.
Inflammatory cells in the BAL fluid were collected by centrifugation (1,000 g for 3 min) and washed once in PBS. Cells were counted using a hemocytometer, and viability was assessed by trypan blue exclusion. In addition, cytospin was carried out for each BAL sample, which was then stained with Diff-Quick (Merck, Dorset, U.K.), enabling differential cell counts to be made. For histological analysis, the lungs of the mice were dissected 48 h after OVA challenge and fixed with 10% formaldehyde in PBS, dehydrated in ethanol-xylene, and embedded in paraffin. Multiple paraffin-embedded […] sections were placed on 0.5% gelatin-coated slides, deparaffinized, and stained with hematoxylin-eosin (HE). Images were acquired using a BX51 microscope (Olympus, Tokyo, Japan) equipped with a DP71 digital camera (Olympus, Tokyo, Japan).
(§3) Inflammatory cells in the BAL fluid were collected by centrifugation (1,000 g for 3 min) and washed once in PBS. Cells were counted using a hemocytometer, and viability was assessed by trypan blue exclusion. […]
as §3

VCAM-1 = VCAM-1 expression in lung tissue (Western blot); format: in vivo, mouse
Method: as §1
as §2, with “All mice were maintained and bred under specific pathogen-free conditions in the Korea University mouse facility, and experiments were conducted within the parameters of an approved protocol by the Animal Research Committee.” left out

[1] = BALB/c mice, LY255283 2.5 mg/kg i.v. 1 hr before 1% OVA challenge
[2] = C57BL/6 mice, antisense BLT2 1.6 mg/kg i.v. 24 hr and 1 hr before 10% OVA challenge

## CCc1cc(C(C)=O)c(O)cc1OCCCCCC(C)(C)c1nnn[nH]1 [LY255283, 1-[5-ethyl-2-hydroxy-4-[[6-methyl-6-(1H-tetrazol-5-yl)heptyl]oxy]phenyl]-ethanone, reference compound]
OVA-challenged mice; [1]
  airway obstruction and leukocyte infiltration (histology): diminished the effect
  reduction of inflammation score as compared to control: ~66%
VCAM-1; LY255283 2.5 mg/kg 1 hr before 1% OVA challenge
  suppression of OVA-induced VCAM-1 induction in lung tissue: −60%

## antisense BLT2: Antisense BLT2 oligonucleotide 5′-GCTCAGTAGTGTCTCATTCC-3′ (SEQ ID NO: 15) (listed as DNA, chemistry not fully specified)
OVA-challenged mice; [2]
  airway obstruction and leukocyte infiltration (histology): diminished
  reduction of inflammation scores as compared to control: ~67%
VCAM-1; antisense BLT2 1.6 mg/kg
  suppression of OVA-induced VCAM-1 induction in lung tissue: −60%

## antisense Rac: phosphorothioate 17-mer to the 5′ end of murine Rac mRNA, 5′-CACTTGATGGCCTGCAT-3′ (SEQ ID NO: 22) (listed as DNA, chemistry not fully specified)
OVA-challenged mice; Rac antisense i.v. 24 hr and 1 hr before 10% OVA challenge, 48 hr after challenge
  airway obstruction and leukocyte infiltration (histology): diminished the effect
VCAM-1; antisense Rac 1.25 mg/kg, tail vein
  OVA-induced VCAM-1 induction in lung tissue: suppressed this effect

— US9255272B2, “Use of inhibitors of leukotriene B4 receptor BLT2 for treating asthma” (Korea University Research & Business Foundation, priority 2007, dated 2016)
